Reference: PubChem BioAssay (NCI)
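How tested: cells in 96-well plates exposed to compound for 48 hours at five concentrations. TGI marks complete inhibition of growth.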

Legend:
Assay in all cases: NCI-60 cell line screen, 48 h
[1] = test system: KM20L2 colon
[2] = test system: MALME-3M melanoma
[3] = test system: SK-MEL-2 melanoma
[4] = test system: DMS 273 small cell lung
[5] = test system: UACC-62 melanoma
[6] = test system: SK-OV-3 ovarian
[7] = test system: KM12 colon
[8] = test system: RXF-631 renal
[9] = test system: HT29 colon
[10] = test system: U251 CNS
[11] = test system: A498 renal
[12] = test system: DMS 114 small cell lung
[13] = test system: CAKI-1 renal
[14] = test system: EKVX NSCLC
[15] = test system: SK-MEL-5 melanoma
[16] = test system: HOP-18 NSCLC
[17] = test system: SW-620 colon
[18] = test system: RXF 393 renal
[19] = test system: MOLT-4 leukemia
[20] = test system: K-562 leukemia
[21] = test system: TK-10 renal
[22] = test system: HL-60(TB) leukemia
[23] = test system: SF-295 CNS
[24] = test system: COLO 205 colon
[25] = test system: M14 melanoma
[26] = test system: LOX IMVI melanoma
[27] = test system: IGROV1 ovarian
[28] = test system: HCT-116 colon
[29] = test system: ACHN renal
[30] = test system: HOP-92 NSCLC
[31] = test system: SNB-75 CNS
[32] = test system: UO-31 renal
[33] = test system: DLD-1 colon
[34] = test system: LXFL 529 NSCLC
[35] = test system: NCI-H23 lung
[36] = test system: OVCAR-4 ovarian
[37] = test system: CCRF-CEM leukemia
[38] = test system: UACC-257 melanoma
[39] = test system: HOP-62 NSCLC
[40] = test system: SR leukemia
[41] = test system: OVCAR-3 ovarian
[42] = test system: OVCAR-5 ovarian
[43] = test system: SN12C renal
[44] = test system: NCI-H226 lung
[45] = test system: SK-MEL-28 melanoma
[46] = test system: HCT-15 colon
[47] = test system: RPMI-8226 leukemia
[48] = test system: M19-MEL melanoma
[49] = test system: HCC-2998 colon
[50] = test system: SNB-78 CNS
[51] = test system: OVCAR-8 ovarian
[52] = test system: NCI-H460 lung
[53] = test system: SF-268 CNS
[54] = test system: XF 498 CNS
[55] = test system: SF-539 CNS
[56] = test system: A549 NSCLC
[57] = test system: 786-0 renal

## C/C(=N\NC(N)=S)c1cc(C)c(C)cc1C
[1]
  TGI: > 100 µM
[2]
  TGI: 92 µM
[3]
  TGI: > 100 µM
[4]
  TGI: > 100 µM
[5]
  TGI: > 100 µM
[6]
  TGI: > 100 µM
[7]
  TGI: 71.2 µM
[8]
  TGI: > 100 µM
[9]
  TGI: 47.6 µM
[10]
  TGI: > 100 µM
[11]
  TGI: > 100 µM
[12]
  TGI: 42.3 µM
[13]
  TGI: > 100 µM
[14]
  TGI: > 100 µM
[15]
  TGI: > 100 µM
[16]
  TGI: > 100 µM
[17]
  TGI: > 100 µM
[18]
  TGI: 97.2 µM
[19]
  TGI: 84.5 µM
[20]
  TGI: > 100 µM
[21]
  TGI: > 100 µM
[22]
  TGI: 65.5 µM
[23]
  TGI: > 100 µM
[24]
  TGI: > 100 µM
[25]
  TGI: > 100 µM
[26]
  TGI: > 100 µM
[27]
  TGI: > 100 µM
[28]
  TGI: > 100 µM
[29]
  TGI: > 100 µM
[30]
  TGI: > 100 µM
[31]
  TGI: 85.3 µM
[32]
  TGI: > 100 µM
[33]
  TGI: > 100 µM
[34]
  TGI: > 100 µM
[35]
  TGI: > 100 µM
[36]
  TGI: > 100 µM
[37]
  TGI: > 100 µM
[38]
  TGI: > 100 µM
[39]
  TGI: > 100 µM
[40]
  TGI: > 100 µM
[41]
  TGI: 60.3 µM
[42]
  TGI: 46.5 µM
[43]
  TGI: > 100 µM
[44]
  TGI: > 100 µM
[45]
  TGI: > 100 µM
[46]
  TGI: > 100 µM
[47]
  TGI: > 100 µM
[48]
  TGI: 74.2 µM
[49]
  TGI: > 100 µM
[50]
  TGI: > 100 µM
[51]
  TGI: > 100 µM
[52]
  TGI: > 100 µM
[53]
  TGI: > 100 µM
[54]
  TGI: 50.3 µM
[55]
  TGI: > 100 µM
[56]
  TGI: > 100 µM
[57]
  TGI: > 100 µM
